Results on 2 compounds are retold here after ChEMBL document CHEMBL1144564, “Discovery of Helicobacter pylori shikimate kinase inhibitors: bioassay and molecular modeling” (Bioorg Med Chem, 2007).

Test [1] has as its target T1, Shikimate kinase (Helicobacter pylori (strain ATCC 700392 / 26695) (Campylobacterpylori), UniProt P56073). Description: Inhibition of Helicobacter pylori SS1 recombinant shikimate kinase expressed in BL21 (DE3) cells in presence of varying shikimate levels by double coupled assay. Format: cell-based.
For test [2], the target named is T1, Shikimate kinase. Description: Inhibition of Helicobacter pylori SS1 recombinant shikimate kinase expressed in BL21 (DE3) cells in presence of varying MgATP levels by double coupled assay. Format: cell-based.
For test [3], the target named is T1, Shikimate kinase. Description: Inhibition of Helicobacter pylori SS1 recombinant shikimate kinase expressed in BL21 (DE3) cells by double coupled assay. Format: cell-based.
In test [4] the target is T1, Shikimate kinase. Description: Binding affinity to Helicobacter pylori SS1 recombinant shikimate kinase expressed in BL21 (DE3) cells by SPR assay.

pIC50, pKd, pKi: −log10 of the molar value.

T1 sequence (P56073 whole entry): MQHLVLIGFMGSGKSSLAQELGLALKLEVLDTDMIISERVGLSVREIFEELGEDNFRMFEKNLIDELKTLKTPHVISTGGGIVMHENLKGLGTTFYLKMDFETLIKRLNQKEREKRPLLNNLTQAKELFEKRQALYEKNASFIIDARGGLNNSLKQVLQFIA

Regarding `COc1cc(C=O)ccc1OCc1ccccc1COc1ccc(/C=C2/SC(=S)NC2=O)cc1OC`, the pKi on Shikimate kinase [1] was 4.97; at Shikimate kinase [2] it was 5.14; at Shikimate kinase [3] it was 5.02. Besides, at Shikimate kinase [3], the negative-log IC50 (pIC50) is 5.26. Besides, the pKd on Shikimate kinase [4] is 5.36.
Turning to `O=C1NN(c2ccc(Cl)c(Cl)c2)C(=O)/C1=C\c1ccc(-c2ccc(Br)cc2C(=O)O)o1`, the pKi was 5.10 on Shikimate kinase [2] and 5.66 at Shikimate kinase [3]. Besides, the pIC50 on Shikimate kinase [3] is 5.19. Also, the pKd at Shikimate kinase [4] is 5.43.

The pKi is the negative decadic logarithm of the Ki, by convention in mol/L. One may read the pIC50 as the IC50 on a negative log10 scale, so that one unit is a factor of ten. The pKd is the negative decadic logarithm of the Kd, by convention in mol/L.
